Reference: PubChem BioAssay AID2060910 (Molecular Pharmacology Branch, DTP, NCI, 2025)

Tested on: 242566-281-R-J2-PDC complex spheroid viability
Assay: Anticancer human tumor 242566-281-R-J2-PDC patient-derived pancreatic carcinoma cell line growth inhibition [RAS]
Conditions: for viability, T/C: stronger effect = lower value
Summary of the method: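 Multi-cell-type spheroids: tumor cells plus HUVEC endothelial cells and mesenchymal stem cells. RAS-pathway inhibitors were combined with targeted agents, each dosed in half-log steps down from clinical Cmax, or from 10 microM when Cmax was unknown.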

[1] = curve of first compound, second compound 0.000949 µM
[2] = curve of first compound, second compound 0.003 µM
[3] = curve of first compound, second compound 0.00949 µM
[4] = curve of first compound, second compound 0.03 µM
[5] = curve of first compound, second compound 0.0949 µM
[6] = curve of first compound, second compound 0.3 µM
[7] = second compound 0.000949 µM, first compound 0.0316 µM
[8] = second compound 0.000949 µM, first compound 0.1 µM
[9] = second compound 0.000949 µM, first compound 0.316 µM
[10] = second compound 0.000949 µM, first compound 1 µM
[11] = second compound 0.000949 µM, first compound 3.16 µM
[12] = second compound 0.000949 µM, first compound 10 µM
[13] = second compound 0.003 µM, first compound 0.0316 µM
[14] = second compound 0.003 µM, first compound 0.1 µM
[15] = second compound 0.003 µM, first compound 0.316 µM
[16] = second compound 0.003 µM, first compound 1 µM
[17] = second compound 0.003 µM, first compound 3.16 µM
[18] = second compound 0.003 µM, first compound 10 µM
[19] = second compound 0.00949 µM, first compound 0.0316 µM
[20] = second compound 0.00949 µM, first compound 0.1 µM
[21] = second compound 0.00949 µM, first compound 0.316 µM
[22] = second compound 0.00949 µM, first compound 1 µM
[23] = second compound 0.00949 µM, first compound 3.16 µM
[24] = second compound 0.00949 µM, first compound 10 µM
[25] = second compound 0.03 µM, first compound 0.0316 µM
[26] = second compound 0.03 µM, first compound 0.1 µM
[27] = second compound 0.03 µM, first compound 0.316 µM
[28] = second compound 0.03 µM, first compound 1 µM
[29] = second compound 0.03 µM, first compound 3.16 µM
[30] = second compound 0.03 µM, first compound 10 µM
[31] = second compound 0.0949 µM, first compound 0.0316 µM
[32] = second compound 0.0949 µM, first compound 0.1 µM
[33] = second compound 0.0949 µM, first compound 0.316 µM
[34] = second compound 0.0949 µM, first compound 1 µM
[35] = second compound 0.0949 µM, first compound 3.16 µM
[36] = second compound 0.0949 µM, first compound 10 µM
[37] = second compound 0.3 µM, first compound 0.0316 µM
[38] = second compound 0.3 µM, first compound 0.1 µM
[39] = second compound 0.3 µM, first compound 0.316 µM
[40] = second compound 0.3 µM, first compound 1 µM
[41] = second compound 0.3 µM, first compound 3.16 µM
[42] = second compound 0.3 µM, first compound 10 µM
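Further: spheroids exposed to compound for 7 days before readout.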
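Wherever viability, T/C is given: 100% = DMSO vehicle control wells.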

With `Cc1nc(N2CCC3(CC2)COC(C)C3N)c(CO)nc1Sc1ccnc(N)c1Cl` (stereo not drawn) + CCn1c(-c2cccnc2C(C)OC)c2c3cc(ccc31)N1CCOC(CC(NC(=O)C(C(C)C)N(C)C(=O)C3(F)CCN(C(=O)C#CC(C)(C)N(C)C)CC3)C(=O)N3CCCC(N3)C(=O)OCC(C)(C)C2)C1 the IC50 [1] was > 10000 nM, the IC50 [2] was > 10000 nM and the IC50 [3] was > 10000 nM. The IC50 [4] was > 10000 nM, the IC50 [5] was > 10000 nM and the IC50 [6] was > 10000 nM. For the same compound, the viability, T/C [7] was 94.9%, the viability, T/C [8] was 93.2% and the viability, T/C [9] was 63.1%. It also gave a viability, T/C [10] of 77.4%, a viability, T/C [11] of 71.5% and a viability, T/C [12] of 53.4%. The viability, T/C [13] was 102%, the viability, T/C [14] was 80% and the viability, T/C [15] was 80%. It also gave a viability, T/C [16] of 81.5%, a viability, T/C [17] of 74% and a viability, T/C [18] of 52.8%. The viability, T/C [19] was 98.8%, the viability, T/C [20] was 73.4% and the viability, T/C [21] was 67.3%. It also gave a viability, T/C [22] of 71%, a viability, T/C [23] of 67.1% and a viability, T/C [24] of 68.6%. The viability, T/C [25] was 97.6%, the viability, T/C [26] was 85.5% and the viability, T/C [27] was 82%. It also gave a viability, T/C [28] of 73.7%, a viability, T/C [29] of 60.7% and a viability, T/C [30] of 61.6%. The viability, T/C [31] was 75.1%, the viability, T/C [32] was 77.3% and the viability, T/C [33] was 79.7%. For the same compound, the viability, T/C [34] was 71.1%, the viability, T/C [35] was 54.3% and the viability, T/C [36] was 61.9%. The viability, T/C [37] was 73.7%, the viability, T/C [38] was 72.8% and the viability, T/C [39] was 61.5%. For the same compound, the viability, T/C [40] was 50.5%, the viability, T/C [41] was 49.9% and the viability, T/C [42] was 51.5%.
Compound `CCc1c2c(nc3ccc(O)cc13)-c1cc3c(c(=O)n1C2)COC(=O)[C@]3(O)CC` + C#Cc1c(F)ccc2cc(O)cc(-c3ncc4c(N5CC6CCC(C5)N6)nc(OCC56CCCN5CC(F)C6)nc4c3F)c12 has an IC50 (curve of first compound, second compound 0.0316 µM) of 31.6 nM, an IC50 (curve of first compound, second compound 0.1 µM) of 24.1 nM and an IC50 (curve of first compound, second compound 0.316 µM) of 15.1 nM. It also gave an IC50 (curve of first compound, second compound 1 µM) of 6.64 nM, an IC50 (curve of first compound, second compound 3.16 µM) of 3.3 nM and an IC50 (curve of first compound, second compound 10 µM) of 3.46 nM. The viability, T/C (second compound 0.0316 µM, first compound 0.000949 µM) was 100%, the viability, T/C (second compound 0.0316 µM, first compound 0.003 µM) was 97.3% and the viability, T/C (second compound 0.0316 µM, first compound 0.00949 µM) was 76.1%. For the same compound, the viability, T/C (second compound 0.0316 µM, first compound 0.03 µM) was 51.3%, the viability, T/C (second compound 0.0316 µM, first compound 0.0949 µM) was 29.3% and the viability, T/C (second compound 0.0316 µM, first compound 0.3 µM) was 17.7%. For the same compound, the viability, T/C (second compound 0.1 µM, first compound 0.000949 µM) was 74.1%, the viability, T/C (second compound 0.1 µM, first compound 0.003 µM) was 86.4% and the viability, T/C (second compound 0.1 µM, first compound 0.00949 µM) was 70.2%. The viability, T/C (second compound 0.1 µM, first compound 0.03 µM) was 44.9%, the viability, T/C (second compound 0.1 µM, first compound 0.0949 µM) was 39.4% and the viability, T/C (second compound 0.1 µM, first compound 0.3 µM) was 31.7%. The viability, T/C (second compound 0.316 µM, first compound 0.000949 µM) was 72.8%, the viability, T/C (second compound 0.316 µM, first compound 0.003 µM) was 74.9% and the viability, T/C (second compound 0.316 µM, first compound 0.00949 µM) was 53%. It also gave a viability, T/C (second compound 0.316 µM, first compound 0.03 µM) of 45%, a viability, T/C (second compound 0.316 µM, first compound 0.0949 µM) of 35.4% and a viability, T/C (second compound 0.316 µM, first compound 0.3 µM) of 36%. For the same compound, the viability, T/C (second compound 1 µM, first compound 0.000949 µM) was 59.3%, the viability, T/C (second compound 1 µM, first compound 0.003 µM) was 66% and the viability, T/C (second compound 1 µM, first compound 0.00949 µM) was 44.3%. For the same compound, the viability, T/C (second compound 1 µM, first compound 0.03 µM) was 36%, the viability, T/C (second compound 1 µM, first compound 0.0949 µM) was 29.5% and the viability, T/C (second compound 1 µM, first compound 0.3 µM) was 30.8%. It also gave a viability, T/C (second compound 3.16 µM, first compound 0.000949 µM) of 56.3%, a viability, T/C (second compound 3.16 µM, first compound 0.003 µM) of 50.6% and a viability, T/C (second compound 3.16 µM, first compound 0.00949 µM) of 40.8%. For the same compound, the viability, T/C (second compound 3.16 µM, first compound 0.03 µM) was 32.7%, the viability, T/C (second compound 3.16 µM, first compound 0.0949 µM) was 31.5% and the viability, T/C (second compound 3.16 µM, first compound 0.3 µM) was 30.4%. It also gave a viability, T/C (second compound 10 µM, first compound 0.000949 µM) of 58.6%, a viability, T/C (second compound 10 µM, first compound 0.003 µM) of 52.5% and a viability, T/C (second compound 10 µM, first compound 0.00949 µM) of 38.3%. For the same compound, the viability, T/C (second compound 10 µM, first compound 0.03 µM) was 41%, the viability, T/C (second compound 10 µM, first compound 0.0949 µM) was 29.2% and the viability, T/C (second compound 10 µM, first compound 0.3 µM) was 22.8%.
In the case of `CCn1c(-c2cccnc2C(C)OC)c2c3cc(ccc31)N1CCOC(CC(NC(=O)C(C(C)C)N(C)C(=O)C3(F)CCN(C(=O)C#CC(C)(C)N(C)C)CC3)C(=O)N3CCCC(N3)C(=O)OCC(C)(C)C2)C1` (stereo not drawn), the viability, T/C (compound 0.000949 µM) is reported as 93.4% [middle of 8 runs], the viability, T/C (compound 0.003 µM) is reported as 108% [middle of 8 runs] and the viability, T/C (compound 0.00949 µM) is reported as 104% [middle of 8 runs]. The viability, T/C (compound 0.03 µM) was 109% [middle of 8 runs], the viability, T/C (compound 0.0949 µM) was 98.3% [middle of 8 runs] and the viability, T/C (compound 0.3 µM) was 87.6% [middle of 8 runs]. For the same compound, the IC50 (compound alone, run of 07/09/2024) was > 300 nM.
`C[C@@H](NC(=O)c1ncnc(N)c1Cl)c1ncc(C(=O)Nc2cc(C(F)(F)F)c(Cl)cn2)s1` + CCn1c(-c2cccnc2C(C)OC)c2c3cc(ccc31)N1CCOC(CC(NC(=O)C(C(C)C)N(C)C(=O)C3(F)CCN(C(=O)C#CC(C)(C)N(C)C)CC3)C(=O)N3CCCC(N3)C(=O)OCC(C)(C)C2)C1 was tested, and the IC50 [1] was > 10000 nM, the IC50 [2] was > 10000 nM and the IC50 [3] was > 10000 nM. The IC50 [4] was > 10000 nM, the IC50 [5] was > 10000 nM and the IC50 [6] was > 10000 nM. The viability, T/C [7] was 126%, the viability, T/C [8] was 107% and the viability, T/C [9] was 112%. For the same compound, the viability, T/C [10] was 103%, the viability, T/C [11] was 107% and the viability, T/C [12] was 63.8%. For the same compound, the viability, T/C [13] was 106%, the viability, T/C [14] was 100% and the viability, T/C [15] was 106%. For the same compound, the viability, T/C [16] was 105%, the viability, T/C [17] was 97.3% and the viability, T/C [18] was 87.7%. It also gave a viability, T/C [19] of 113%, a viability, T/C [20] of 104% and a viability, T/C [21] of 95.1%. For the same compound, the viability, T/C [22] was 115%, the viability, T/C [23] was 91.8% and the viability, T/C [24] was 83.1%. For the same compound, the viability, T/C [25] was 105%, the viability, T/C [26] was 90.8% and the viability, T/C [27] was 109%. For the same compound, the viability, T/C [28] was 90.6%, the viability, T/C [29] was 77.3% and the viability, T/C [30] was 101%. It also gave a viability, T/C [31] of 94.9%, a viability, T/C [32] of 105% and a viability, T/C [33] of 90.7%. It also gave a viability, T/C [34] of 105%, a viability, T/C [35] of 69.8% and a viability, T/C [36] of 98.1%. The viability, T/C [37] was 90.8%, the viability, T/C [38] was 84.5% and the viability, T/C [39] was 108%. It also gave a viability, T/C [40] of 88.1%, a viability, T/C [41] of 85.5% and a viability, T/C [42] of 86.7%.
